Assay results reported in patent US4659712A, “Fodder additive and a process for the preparation” (Richter Gedeon Vegyeszeti Gyar Rt., priority 1984, dated 1987).

Key:
[1] = Quinoxaline-2-carboxylic acid (Carbadox metabolite) residue in pig muscle (ham, chop), liver and kidney after flumecinol treatment; type: in vivo, pigs
Method: Tests were carried out at a large-scale pig farm, where 25 mg/kg of body weight of Carbadox admixed with the fodder of the pigs were administered to pigs having a live weight of 40 kg. From a population fed with this fodder 27 animals, each weighing exactly 40 kg, were selected, by weighing them separately. The selected animals were railed off in a place suitable for further tests. From this time on (zero time) the animals were given the same fodder as before, except Carbadox.
The 27 animals were divided into three groups as follows:
Group I: 12 animals (ser. Nos. from 1 to 12) slaughtering: three animals each when starting the experiment (0 time) and on the 1st, 5th and 15th days (positive control group) Group II: 9 amimals (ser. Nos. from 13 to 21) treatment: a single 40 mg/kg of body weight dose of flumecinol at zero time. slaughtering: three animals each on the 1st, 5th and 15th days (group treated with a single dose of flumecinol) Group III: 6 animals (ser. Nos. 22 to 27) treatment: 40 mg/kg of body weight of flumecinol for three days, at zero time and on the 1st and 2nd day slaughtering: three animals each on the 5th and 15th days (group treated with flumecinol three times) Flumecinol is available as a micropellet containing 19.02% of active ingredient. From this and a 1% starch hydrolysate a suspension is prepared, containing 40 mg of flumecinol per 1 ml (dose used for one kg of body weight). The active compound was administered 8 o'clock in the morning, without previous fasting, through a stomach tube, in order to ensure exact conditions for the experiments. The animals were killed and samples were taken from 8 to 11 o'clock in the morning, whereupon the samples were transported into the analytical laboratory within one hour, under cooling.
Quinoxaline-2-carboxylic acid (a metabolite of Carbadox) was determined in the chop, liver and kidney tissues of three animals from each group. Each muscle and liver sample was subjected to organoleptic examination also (boiling test).
The quantity of quinoxaline-2-carboxylic acid was determined essentially following the method described in the USDA Chemistry Laboratory Guidebook (5007 Determination of Carbadox):
Following the alkaline hydrolysis of the muscle, liver and kidney samples, the hydrolysates were strongly acidified and the quinoxaline-2-carboxylic acid was extracted with ethyl acetate. The pH of the ethyl acetate extract was adjusted to 6 with a citric acid buffer, whereupon the mixture was extracted with benzene. In the next step the acid was esterified with a mixture of n-propanol and sulfuric acid, to yield propyl quinoxaline-2-carboxylate. The quantity of the latter compound was determined (after purification by thin layer chromatography) by gas chromatography. This cumbersome test procedure was always performed together with a […] control sample to which a known amount (0.2 μg-1.0 μg) of quinoxaline-2-carboxylic acid (standard) was added. The percentage of the active ingredient recovered from this sample was taken into account when calculating the residual active substance amount. In this way the error of the process was eliminated.
The test results, if not otherwise indicated, are given in μg/kg.
The quantity of quinoxaline-2-carboxylic acid in the above-specified slaughtering times is shownn in Table 1. The tests were carried out on three animals and Table 1 contains the results obtained on the individual animals. The results were also statistically evaluated for the various sorts of tissues, although in this specific case this was not really necessary, since according to the valid prescriptions the products of animal origin should not contain Carbadox at all, i.e. the limit is zero. Therefore, we considered it more important to determine when the animal tissues become entirely Carbadox-free, than to observe the differences among the tissues of the various groups of animals in the time when they were killed.

[2] = test system: E.coli infections and dysentery; settings: pigs; cited from earlier work
[3] = administered as a fodder additive; cited from earlier work
[4] = in vivo; cited from earlier work

Row | Structure (SMILES) | amount of residue in liver, change from initial ([1]; control group, 1st day) | level of residue in liver ([1]; control group, 15th day) | amount of the Carbadox metabolite residue in the liver vs. muscle ([1]; liver) | potency in the treatment and prophylaxis of E.coli infections and dysentery [2] | increasing the weight gain of animals [3] | elimination rate from the animals [4] | quinoxaline-2-carboxylic acid in muscle, kidney and liver tissues ([1]; Carbadox, no flumecinol, 15th day following termination) | quinoxaline-2-carboxylic acid in the kidney ([1]; control group, 15th day) | presence in muscle tissue ([1]; positive control, 15 days after termination of Carbadox administration) | residual concentration, chop vs. ham ([1]; positive control, muscle tissue)
1 | COC(=O)NN=Cc1c[n+]([O-])c2ccccc2[n+]1[O-] [Carbadox, 3-(2-quinoxalinylmethylene)-carbazic acid methyl ester N,N'-dioxide, reference compound] | further increased on the 1st day | a level identical with the initial concentration in the muscles | one order of magnitude higher than in the muscle tissue | very potent | one of the most efficious agents employed for increasing the weight gain of animals | eliminated from the animals at a very low rate |  |  |  | 
2 | O=C(O)c1cnc2ccccc2n1 [quinoxaline-2-carboxylic acid, Quinoxaline-2-carboxylic acid] |  |  |  |  |  |  | significant amount | detected in the kidney even on the 15th day | present in the muscle tissue even 15 days after the termination of Carbadox administration, in a significant amount | always higher in the chop than in the ham muscle
